Test results as given in patent publication US9113629B2, “4-amino-6-(4-substituted-phenyl)-picolinates and 6-amino-2-(4-substituted-phenyl)-pyrimidine-4-carboxylates and their use as herbicides” (DOW AGROSCIENCES LLC, priority 2013, dated 2015).
Where two headings read alike, the source gives them in different places.

Assays:
[1] = tested on: Key Grass and Sedge Weeds as well as Grass Crops; test: Post-emergent Test II herbicidal activity (Table 6); type: in vivo; settings: post-emergence, 336 h; for pest or weed control at 70 g/ha: 70 g ai/ha; for pest or weed control at 140 g/ha: 140 g ai/ha
Summary of the method: (§1)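 Visual injury ratings (0 = no injury, 100 = complete kill) were taken 14 d after treatment, relative to untreated plants. Seedlings at the first–second true leaf stage received overhead spray at 187 L/ha; the highest rate was serially diluted to ½×, ¼×, ⅛× and 1/16×.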

[2] = tested on: Key Broadleaf Weed and Crop Species; test: Post-emergent Test II herbicidal activity (Table 5); type: in vivo; settings: post-emergence, 336 h, 14 days after application; for pest or weed control at 70 g/ha: application rate 70 g ai/ha; for pest or weed control at 140 g/ha: application rate 140 g ai/ha
Summary of the method: as §1

[3] = CYPES: yellow nutsedge (Cyperus esculentus), read-out: Visual Growth Reduction (%) 14 Days After Application, CYPES
[4] = DIGSA: crabgrass (Digitaria sanguinalis), read-out: Visual Growth Reduction (%) 14 Days After Application, DIGSA
[5] = ECHCG: barnyardgrass (Echinochloa crus-galli), read-out: Visual Growth Reduction (%) 14 Days After Application, ECHCG
[6] = ORYSA: rice (Oryza sativa), crop, read-out: Visual Growth Reduction (%) 14 Days After Application, ORYSA
[7] = SETFA: giant foxtail (Setaria faberi), read-out: Visual Growth Reduction (%) 14 Days After Application, SETFA
[8] = SORVU: grain sorghum (Sorghum vulgare), read-out: Visual Growth Reduction (%) 14 Days After Application, SORVU
[9] = TRZSS (wheat, Triticum aestivum), crop, read-out: Visual Growth Reduction (%) 14 Days After Application, TRZSS
[10] = ZEAMX: maize, corn (Zea mays), crop, read-out: Visual Growth Reduction (%) 14 Days After Application, ZEAMX
[11] = ABUTH: velvetleaf (Abutilon theophrasti), read-out: Visual Growth Reduction (%) 14 Days After Application, ABUTH
[12] = AMARE: redroot pigweed (Amaranthus retroflexus), read-out: Visual Growth Reduction (%) 14 Days After Application, AMARE
[13] = BRSNN: oilseed-rape, canola (Brassica napus), read-out: Visual Growth Reduction (%) 14 Days After Application, BRSNN
[14] = CHEAL: lambsquarters (Chenopodium album), read-out: Visual Growth Reduction (%) 14 Days After Application, CHEAL
[15] = EPHHL: wild poinsettia (Euphorbia heterophylla), read-out: Visual Growth Reduction (%) 14 Days After Application, EPHHL
[16] = HELAN: sunflower (Helianthus annuus), read-out: Visual Growth Reduction (%) 14 Days After Application, HELAN
[17] = VIOTR: wild pansy (Viola tricolor), read-out: Visual Growth Reduction (%) 14 Days After Application, VIOTR

Q: For N#Cc1ccc(-c2nc(C(=O)O)c(Cl)c(N)c2F)cc1 [Compound 39], which pest or weed control at 70 g/ha [1, 3] is on record?
A: Its pest or weed control at 70 g/ha is 60 to 74%.

Q: And the pest or weed control at 140 g/ha [1, 3]?
A: The pest or weed control at 140 g/ha was 75 to 84%.

Q: What about the pest or weed control at 70 g/ha [1, 4] of the same compound?
A: Its pest or weed control at 70 g/ha is 30 to 44%.

Q: And the pest or weed control at 140 g/ha [1, 4]?
A: The pest or weed control at 140 g/ha was 45 to 59%.

Q: And the pest or weed control at 70 g/ha [1, 5]?
A: Its pest or weed control at 70 g/ha is 85 to 94%.

Q: What about the pest or weed control at 140 g/ha [1, 5] of the same compound?
A: The pest or weed control at 140 g/ha was 85 to 94%.

Q: What about the pest or weed control at 70 g/ha [1, 6] of the same compound?
A: Its pest or weed control at 70 g/ha is 0 to 29%.

Q: And the pest or weed control at 140 g/ha [1, 6]?
A: The pest or weed control at 140 g/ha was 0 to 29%.

Q: What about the pest or weed control at 70 g/ha [1, 7] of the same compound?
A: Its pest or weed control at 70 g/ha is 0 to 29%.

Q: What about the pest or weed control at 140 g/ha [1, 7] of the same compound?
A: The pest or weed control at 140 g/ha was 30 to 44%.

Q: What about the pest or weed control at 70 g/ha [1, 8] of the same compound?
A: Its pest or weed control at 70 g/ha is 30 to 44%.

Q: What about the pest or weed control at 140 g/ha [1, 8] of the same compound?
A: The pest or weed control at 140 g/ha was 60 to 74%.

Q: And the pest or weed control at 70 g/ha [1, 9]?
A: Its pest or weed control at 70 g/ha is 30 to 44%.

Q: And the pest or weed control at 140 g/ha [1, 9]?
A: Its pest or weed control at 140 g/ha is 45 to 59%.

Q: What about the pest or weed control at 70 g/ha [1, 10] of the same compound?
A: The pest or weed control at 70 g/ha was 60 to 74%.

Q: What about the pest or weed control at 140 g/ha [1, 10] of the same compound?
A: The pest or weed control at 140 g/ha was 60 to 74%.

Q: And the pest or weed control at 70 g/ha [2, 11]?
A: Its pest or weed control at 70 g/ha is 30 to 44%.

Q: What about the pest or weed control at 140 g/ha [2, 11] of the same compound?
A: Its pest or weed control at 140 g/ha is 60 to 74%.

Q: And the pest or weed control at 70 g/ha [2, 12]?
A: The pest or weed control at 70 g/ha was 0 to 29%.

Q: What about the pest or weed control at 140 g/ha [2, 12] of the same compound?
A: Its pest or weed control at 140 g/ha is 0 to 29%.

Q: And the pest or weed control at 70 g/ha [2, 13]?
A: The pest or weed control at 70 g/ha was 0 to 29%.

Q: What about the pest or weed control at 140 g/ha [2, 13] of the same compound?
A: The pest or weed control at 140 g/ha was 30 to 44%.

Q: What about the pest or weed control at 70 g/ha [2, 14] of the same compound?
A: The pest or weed control at 70 g/ha was 85 to 94%.

Q: And the pest or weed control at 140 g/ha [2, 14]?
A: The pest or weed control at 140 g/ha was 95 to 100%.

Q: What about the pest or weed control at 70 g/ha [2, 15] of the same compound?
A: The pest or weed control at 70 g/ha was 85 to 94%.

Q: What about the pest or weed control at 140 g/ha [2, 15] of the same compound?
A: The pest or weed control at 140 g/ha was 95 to 100%.

Q: What about the pest or weed control at 70 g/ha [2, 16] of the same compound?
A: The pest or weed control at 70 g/ha was 95 to 100%.

Q: And the pest or weed control at 140 g/ha [2, 16]?
A: The pest or weed control at 140 g/ha was 95 to 100%.

Q: What about the pest or weed control at 70 g/ha [2, 17] of the same compound?
A: The pest or weed control at 70 g/ha was 30 to 44%.

Q: What about the pest or weed control at 140 g/ha [2, 17] of the same compound?
A: The pest or weed control at 140 g/ha was 30 to 44%.
